The test system of assay [1] is indomethacin ulcers of the stomach. Nature of the assay: protection against the ulcerogenic properties of indomethacin (ulcer score). Type of assay: in vivo, rats. To be noted: 2.5 or lower = active. On the procedure: The compounds of this invention provide protection against the ulcerogenic properties of indomethacin. This assay was carried out in the following manner.
Rats were starved for 48 hours (water was given ad libitum). Indomethacin (20 mg./kg. of body weight) was administered by the subutaneous route and one-half the dose of the test compound was administered by gavage at the same time. After three hours, the second half of the test compound was administered also by Gavage. Five hours after the administration of indomethacin the animals were decapitated and the stomachs removed. The stomachs were washed with distilled water, blotted on gauze, cut along the larger curvature, and the contents rinsed with distilled water. The stomachs were spread out, pinned on a cork and visualized under magnifying glass for ulcers. The criteria for scoring of ulcers was as previously reported. [Abdel-Galil et al. Brit. J. Pharmac. Chemotherapy 33:1-14 (1968)].
1 Petechial hemorrhage or pin point ulcer
3 Many ulcers, a few large
4 Many ulcers, mainly large
Control animals treated with indomethacin but not test compound consistently give scores of about 3.0-3.5. Control animals treated with neither indomethacin nor test compound give scores of about 0.5-0.8. Compounds producing a score of 2.5 or lower are considered to be active.

The test system of a further assay is diastolic blood pressure. Nature of the assay: hypotensive activity in anesthetized rats. Type of assay: in vivo, Male Wistar strain rats. To be noted: intravenous, minimal dose for a decrease of about 10 mm. in diastolic blood pressure; for minimal effective dose: Rattus norvegicus. On the procedure:
This procedure is a modification of the technique described by Pike et al., Prostaglandins, Nobel Symposium 2, Stockholm, June, 1966; p. 165.
Male Wistar strain rats (Royal Hart Farms) averaging approximately 250 grams in weight were fastened to rat boards in a supine position by means of canvas vests and limb ties. The femoral area was infiltrated subcutaneously with lidocaine and the iliac artery and vein were exposed and cannulated. Arterial blood pressure (systolic/diastolic) was recorded using a Statham P23 Db pressure, the animals were anethetized before use with pentobarbital, 30 mg./kg. of body weight intravenously, and also were given hexamethoxium bitartrate, 2 mg/kg. of body weight intravenously. The test compounds were prepared by ultrasonic dispersion in a saline-Tween 80 vehicle. A constant intravenous dose volume of 0.5 ml. was administered and test doses ranged from 0.1 to 10.0 mg./kg. of body weight. Increasing or decreasing doses were selected depending on the dose response obtained. In Table 2B below are set forth the minimal doses required to produce a decrease of about 10 mm. in diastolic blood pressure for typical compounds of the present invention.

Assay [2] has as its system bronchospasms elicited by acetylcholine. Kind of assay: bronchodilator activity, Konzett procedure, acetylcholine. The class given is in vivo, guinea pigs. The following applies: Cavia porcellus; three logarithmic cumulative intravenous doses; column head printed choline; read-out: Bronchodilator Activity (Konzett Assays) ED50, choline. Here is the method: (§1) Bronchodilator activity was determined in guinea pigs against bronchospasms elicited by intravenous injections of 5-hydroxytryptamine, histamine or acetylcholine by the Konzett procedure. [See J. Lulling, P. Lievens, F. El Sayed and J. Prignot, Arzeimittel-Forschung, 18 995 (1968).]
(§2) In the table which follows bronchodilator activity for representative compounds of this invention against one or more of the three spasmogenic agents is expressed as an ED50 determined from the results obtained with three logarithemic cumulative intravenous doses.

Another assay concerns gastric acid secretion. Kind of assay: gastric acid secretion inhibition, "Shay rat" procedure. The class given is in vivo, rats (male, CFE strain). To be noted: intraduodenal dose 100 mg./kg. of body weight; 3 hours; 20% or more = active. On the procedure:
The novel compounds of the present invention are also effective inhibitors of gastric acid secretion and of ulcer development in experimental animals, and thus are potentially valuable as agents for the control of gastric acid secretion and of gastric erosion and as anti-ulcer agents. Gastric acid secretion inhibitory action is usually measured by the "Shay rat" procedure ^(1,2) with some modifications as follows.
The rats (male, CFE strain) were starved for 48 hours (water was given ad libitum) to permit evacuation of stomach contents. On the morning of the experiment, under ether anesthesia, the abdominal region was shaved and a midline incision (1-1 1/2 in.) was made with a scapel. With the help of a closed curved hemostate the duodenum was picked up. […]
The test compound or the vehicle, usually […], were injected into the duodenum as close as possible to the first ligature. […] The supernatant was collected, volume measured and recorded, 2 drops of a phenolphthalein indicator (1% in 95% ethanol) were added and the solution was titrated with 0.02N NaOH (or with 0.04N NaOH when large volumes of stomach contents were encountered) to pH 8.4 (because of usual coloring of the stomach contents, phenolphthalein was only used to permit visual indication that the end point was near) and the amount of acid present was calculated. […]

Assay [3] deals with bronchospasms elicited by 5-hydroxytryptamine. Kind of assay: bronchodilator activity, Konzett procedure, 5-hydroxytryptamine. To be noted: Cavia porcellus; three logarithmic cumulative intravenous doses; spasmogen 5-hydroxytryptamine; read-out: Bronchodilator Activity (Konzett Assays) ED50, 5-hydroxytryptamine. Type of assay: in vivo, guinea pigs. Here is the method:
as §1, §2

In assay [4] the test system is bronchospasms elicited by histamine. Nature of the assay: bronchodilator activity, Konzett procedure, histamine. Type of assay: in vivo, guinea pigs. The following applies: Cavia porcellus; three logarithmic cumulative intravenous doses; spasmogen histamine; read-out: Bronchodilator Activity (Konzett Assays) ED50, histamine. Here is the method: as §1, §2
Where [5] appears, read: total oral dose 25 mg./kg. of body weight, control score 3.2, scale 0 (normal stomach) to 4 (many ulcers, mainly large).

Consider `CCCCCC(O)/C=C/C1CCC(=O)C1(C)CCCCCCC(=O)O` (stereo not drawn) [9-oxo-8β-methyl-15-hydroxy-13-trans-prostenoic acid], for which the “Score, Treated” value in assay [1] (total oral dose 12.5 mg./kg. of body weight, control score 3.0, scale 0-4) came out at 2.0. Moreover, the “Minimal effective hypotensive dose” value with diastolic blood pressure is given as 2 mg./kg. of body wt.
What is called minimal effective dose is the smallest amount tested that counted as effective. As for `CCCCC[C@H](O)/C=C/[C@H]1CCC(=O)[C@@H]1CCCCSCC(=O)O` (relative stereo) [9-oxo-3-thia-15-hydroxy-13-trans-prostenoic acid], the minimal effective dose in the assay with diastolic blood pressure is 2 mg/kg.
The same measure, in the same setting: under `CCCCC[C@H](O)/C=C/[C@H]1CCC(=O)[C@@H]1CCCCCC(C(=O)O)c1ccccc1` (stereo partly drawn) [2-phenyl-9-oxo-15-hydroxy-13-trans-prostenoic acid] stands 8 mg/kg.
On to `CCCCC[C@@H](O)/C=C/[C@H]1CCC(=O)[C@@H]1CCCCSCC(=O)O` (relative stereo) [9-oxo-3-thia-15-epi-hydroxy-13-trans-prostenoic acid], for which, in assay [1] (setting [5]), the “Score, Treated” value was 2.3. The compound further registered a minimal effective dose in the assay with diastolic blood pressure of 2 mg/kg.
`CCCCC[C@H](O)/C=C/[C@H]1CCCC(=O)[C@@H]1CCCCCCC(=O)O` (relative stereo) [9-oxo-10a-homo-15-hydroxy-13-trans-prostenoic acid] came in with a minimal effective dose in the assay on diastolic blood pressure of 2 mg/kg.
The same measure, in the same setting: the value for `CCCCC[C@H](O)/C=C/[C@H]1CCC(=O)[C@@H]1CCCCOCC(=O)OCC` (relative stereo) [Ethyl 3-oxa-9-oxo-15-hydroxy-13-trans-prostenoate] was 0.2 mg/kg.
A word on the ED50: it is the midpoint of the dose-response relation. In the case of `CCCC#CC(O)CC[C@H]1CCC(=O)[C@@H]1CCCCCCC(=O)O` (stereo partly shown) [9-oxo-15-hydroxy-16-prostynoic acid], the ED50 in assay [2] was determined as 0.00032 mg/kg.
In the assay on diastolic blood pressure, `CCCCC[C@@H](O)/C=C/[C@H]1CCCC(=O)[C@@H]1CCCCCCC(=O)O` (relative stereo) [9-oxo-10a-homo-15-epi-hydroxy-13-trans-prostenoic acid] came in with a minimal effective dose of 2 mg/kg.
On the same count and under the same terms, under `CCCCC[C@H](O)/C=C/[C@H]1CCC(=O)[C@@H]1CCCCCC(C)C(=O)O` (stereo partly drawn) [2-methyl-9-oxo-15-hydroxy-13-trans-prostenoic acid] stands 2 mg/kg.
`CC/C=C\CC(C)(O)/C=C/C1CCC(=O)C1C/C=C\CCCC(=O)O` (stereo not drawn) [9-oxo-15-hydroxy-15-methyl-5-cis,13-trans,17-cis-prostatrienoic acid]: the “Minimal effective hypotensive dose” value in the assay with diastolic blood pressure was < 2 mg./kg. of body wt.
For `CCCCC[C@@H](O)/C=C/[C@H]1CCC(=O)[C@@H]1CCCCCC(C)C(=O)O` (stereo partly drawn) [2-methyl-9-oxo-15-epi-hydroxy-13-trans-prostenoic aid], the minimal effective dose in the assay with diastolic blood pressure came to 2 mg/kg.
In the case of `CC/C=C\CC(O)/C=C/C1CCC(=O)C1C/C=C\CCCC(=O)O` (stereo not drawn) [9-oxo-15-hydroxy-5-cis,13-trans,17-cis-prostatrienoic acid], the “Minimal effective hypotensive dose” value in the assay with diastolic blood pressure was < 2 mg./kg. of body wt.
Take `CCCCCC(O)/C=C/[C@H]1CCC(=O)[C@@H]1CCCCC(C)(C)CC(=O)O` (relative stereo) [9-oxo-15-hydroxy-3,3-dimethyl-13-trans-prostenoic acid]: the “Percent Inhibition (gastric acid secretion)” value with gastric acid secretion is 51%.
`CCCCC[C@@H](O)/C=C/[C@H]1CCC(=O)[C@@H]1CCCCOCC(=O)OCC` (relative stereo) [Ethyl 3-oxa-9-oxo-15-epi-hydroxy-13-trans-prostenoate]: the minimal effective dose in the assay on diastolic blood pressure stood at 0.2 mg/kg.
`CCCCC(CC)C(O)/C=C/[C@H]1CCC(=O)[C@@H]1CCCCCCC(=O)O` (stereo partly drawn) [9-oxo-15-hydroxy-16-ethyl-13-trans-prostenoic acid]: the “Score, Treated” value in assay [1] (setting [5]) came to 1.7.
Take `CCCCC[C@H](O)/C=C/[C@H]1CCC(=O)[C@@H]1CCCCCC(CC)C(=O)O` (stereo partly drawn) [9-oxo-15-hydroxy-2-ethyl-13-trans-prostenoic acid]: the ED50 in assay [2] is 0.000533 mg/kg; in assay [3], 0.000329 mg/kg; in assay [4] it was 0.000145 mg/kg. The “Score, Treated” value in assay [1] (total oral dose 50 mg./kg. of body weight, control score 3.0, scale 0-4) turned out to be 2.2. The compound also returned a minimal effective dose in the assay with diastolic blood pressure of less than 2 mg/kg.
Compound `CCCCC[C@H](O)/C=C/[C@H]1CCC(=O)[C@@H]1CCCCOCC(=O)O` (relative stereo) [3-oxa-9-oxo-15-hydroxy-13-trans-prostenoic acid] had a minimal effective dose with diastolic blood pressure of less than 2 mg/kg.
As to `CCCCCC(O)/C=C\[C@H]1CCC(=O)[C@@H]1CCCCCCC(=O)O` (relative stereo) [9-oxo-15-hydroxy-13-cis-prostenoic acid, 15-hydroxy-9-oxo-13-cis-prostenoic acid], the “Score, Treated” value in assay [1] (total oral dose 100 mg./kg. of body weight, control score 3.0, scale 0-4) was 1.3. The ED50 in assay [3] is 0.000106 mg/kg.
